Like-named read-outs stand apart in the source and are kept apart here.
Biological target: T1, full-length human PRMT3 isoform 1 (GST-tagged) (Homo sapiens, UniProt O60678)
T1 construct: GST-tagged PRMT3; made in house; host or cells: E. coli BL21(DE3) Gold
Test: PRMT3 Biochemical Assay (3H-SAM Flashplate, peptide substrate)
Description: General Materials. S-adenosylmethionine (SAM), S-adenosylhomocysteine (SAH), bicine, Tween20, dimethylsulfoxide (DMSO), bovine skin gelatin (BSG),), isopropyl-β-D-thiogalactopyranoside (IPTG), and Tris(2-carboxyethyl)phosphine hydrochloride solution (TCEP) were purchased from Sigma-Aldrich at the highest level of purity possible. ^3H-SAM was purchase from American Radiolabeled Chemicals with a specific activity of 80 Ci/mmol. 384-well streptavidin Flashplates were purchased from PerkinElmer.
Substrates. Peptide containing the classic RMT substrate motif was synthesized with an N-terminal linker-affinity tag motif and a C-terminal amide cap by 21st Century Biochemicals. The peptide was purified by high-performance liquid chromatography (HPLC) to greater than 95% purity and confirmed by liquid chromatography mass spectrometry (LC-MS). The sequence was Biot-Ahx-[…]-amide (SEQ ID NO.:11).
Molecular Biology: Full-length human PRMT3 (NM_005788.3) isoform 1 transcript clone was amplified from an HEK 293 cDNA library and subcloned into pGEX-KG (GE Life Sciences). The resulting construct encodes an N-terminal GST tag and a thrombin cleavage sequence ([…] […] […] […] S) (SEQ ID NO.:12) fused directly to Cys 2 of PRMT3.
Protein Expression. E. coli (BL21(DE3) Gold, Stratagene) made competent by the CaCl2) method were transformed with the PRMT3 construct and ampicillin selection. Protein over-expression was accomplished by growing the PRMT3 expressing E. coli clone and inducing expression with 0.3 mM IPTG at 16° C. The culture was grown for 12 hours, harvested by centrifugation, and stored at −80° C. for purification.
Protein Purification. […] GST-tagged PRMT3 was eluted with 50 mM Tris, 2 mM glutathione, pH 7.1 and 50 mM Tris, 20 mM glutathione, pH 7.1. Pooled fractions were dialysed in 20 mM Tris, 50 mM NaCl, 5% glycerol, 1 mM EDTA, 1 mM DTT, pH7.5 (Buffer B) and applied to a Q Sepharose Fast Flow column. GST-tagged PRMT3 was eluted by 500 mM NaCl in buffer B. Pooled fractions were dialyzed in 25 mM phosphate buffer, 100 mM NaCl, 5% glycerol, 2 mM DTT, pH 6.8 (Buffer C) and loaded on to a ceramic hydroxyapatite column. GST-tagged PRMT3 eluted with 25-400 mM phosphate in buffer C. Protein was concentrated and buffer was exchanged to 20 mM Tris, 150 mM NaCl, 5% glycerol, 5 mM β-mercaptoethanol, pH7.8 by ultrafiltration. The purity of recovered protein was 70%.
General Procedure for PRMT3 Enzyme Assays on Peptide Substrates. The assays were all performed in a buffer consisting of 20 mM Bicine (pH=7.6), 1 mM TCEP, 0.005% BSG, and 0.002% Tween 20, prepared on the day of use. Compounds in 100% DMSO (1 ul) were spotted into a polypropylene 384-well V-bottom plates (Greiner) using a Platemate Plus outfitted with a 384-channel head (Thermo Scientific). DMSO (1 ul) was added to Columns 11, 12, 23, 24, rows A-H for the maximum signal control and 1 ul of SAH, a known product and inhibitor of PRMT3, was added to columns 11, 12, 23, 24, rows I-P for the minimum signal control. A cocktail (40 ul) containing the PRMT3 enzyme was added by Multidrop Combi (Thermo-Fisher). The compounds were allowed to incubate with PRMT3 for 30 min at room temperature, then a cocktail (10 ul) containing SAM and peptide was added to initiate the reaction (final volume=51 ul). The final concentrations of the components were as follows: PRMT3 was 0.5 nM, ^3H-SAM was 100 nM, non-radiolabeled SAM was 1.8 uM, peptide was 330 nM, SAH in the minimum signal control wells was 1 mM, and the DMSO concentration was 2%. The assays were stopped by the addition of potassium chloride (10 ul) to a final concentration of 100 mM. 50 ul of the reaction in the 384-well polypropylene plate was then transferred to a 384-well Flashplate and the biotinylated peptides were allowed to bind to the streptavidin surface for at least 1 hour before being washed once with 0.1% Tween20 in a Biotek ELx405 plate washer. […]

[1] = single experiment or average of multiple experiments

T1 sequence (O60678 with tags, fused parts or gaps): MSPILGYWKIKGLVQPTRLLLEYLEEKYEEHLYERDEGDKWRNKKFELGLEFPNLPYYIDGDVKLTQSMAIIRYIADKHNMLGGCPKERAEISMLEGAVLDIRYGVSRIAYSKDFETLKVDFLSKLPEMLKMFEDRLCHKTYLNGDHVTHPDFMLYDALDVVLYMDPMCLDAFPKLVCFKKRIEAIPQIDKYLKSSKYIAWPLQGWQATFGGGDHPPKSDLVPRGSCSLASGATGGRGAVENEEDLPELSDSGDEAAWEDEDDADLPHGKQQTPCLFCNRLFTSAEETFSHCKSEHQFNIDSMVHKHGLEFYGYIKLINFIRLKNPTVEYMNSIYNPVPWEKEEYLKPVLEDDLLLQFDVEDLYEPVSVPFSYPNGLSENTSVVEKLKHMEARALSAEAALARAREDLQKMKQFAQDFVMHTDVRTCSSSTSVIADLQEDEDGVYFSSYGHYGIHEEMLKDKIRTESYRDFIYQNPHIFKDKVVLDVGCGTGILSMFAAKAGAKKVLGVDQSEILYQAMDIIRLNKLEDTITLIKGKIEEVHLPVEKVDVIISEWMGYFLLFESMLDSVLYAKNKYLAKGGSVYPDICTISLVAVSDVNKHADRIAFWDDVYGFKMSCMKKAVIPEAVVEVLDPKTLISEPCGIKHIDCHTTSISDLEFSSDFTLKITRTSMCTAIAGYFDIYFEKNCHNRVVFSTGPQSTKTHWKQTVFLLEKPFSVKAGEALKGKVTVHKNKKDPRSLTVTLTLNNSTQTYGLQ

## COc1cccc(/C=C/c2n[nH]cc2CN(C)CCN)c1 [Compound 17]
[1]
  IC50: 2.36 µM

## CNCCN(C)Cc1c[nH]nc1/C=C/c1ccc(C(F)(F)F)cc1 [Compound 6]
[1]
  IC50: 3.94 µM

## CN(CCN)Cc1c[nH]nc1/C=C/c1ccc(C(F)(F)F)cc1 [Compound 18]
[1]
  IC50: 1.75 µM

## CNCCN(C)Cc1c[nH]nc1/C=C/c1ccc(OC)cc1 [Compound 7]
[1]
  IC50: 5.91 µM

## CN(CCN)Cc1c[nH]nc1C1CCCCC1 [Compound 22]
[1]
  IC50: 6.46 µM

## CNCCN(C)Cc1c[nH]nc1/C=C/c1ccc(-c2ccccc2)cc1 [Compound 5]
[1]
  IC50: 1.45 µM

## Cc1ccc(/C=C/c2n[nH]cc2CN(C)CCN)cc1 [Compound 8]
[1]
  IC50: 5.81 µM

## CN(CCN)Cc1c[nH]nc1C1=CCOCC1 [Compound 10]
  IC50: > 10 µM
[1]
  IC50: > 10 µM

## CNCCN(C)Cc1c[nH]nc1C#Cc1ccc(F)cc1 [Compound 4]
  IC50: > 10 µM
[1]
  IC50: > 10 µM

## COC/C=C/c1n[nH]cc1CN(C)CCN [Compound 19]
[1]
  IC50: 7.74 µM

## CN(CCN)Cc1c[nH]nc1/C=C/c1ccc(F)cc1F [Compound 13]
[1]
  IC50: 3.62 µM

## CN(CCN)Cc1c[nH]nc1/C=C/c1cc(C(F)(F)F)cc(C(F)(F)F)c1 [Compound 14]
[1]
  IC50: 6.77 µM

## CN(CCN)Cc1c[nH]nc1/C=C/c1cc(F)cc(F)c1 [Compound 15]
[1]
  IC50: 2.34 µM

## CN(CCN)Cc1c[nH]nc1CCc1ccc(F)cc1 [Compound 23, N^1-((3-(4-fluorophenethyl)-1H-pyrazol-4-yl)methyl)-N^1-methylethane-1,2-diamine]
[1]
  IC50: 9.65 µM

## CN(CCN)Cc1c[nH]nc1C1CC1 [Compound 12]
  IC50: > 10 µM
[1]
  IC50: > 10 µM

## COc1cc(/C=C/c2n[nH]cc2CN(C)CCN)cc(OC)c1 [Compound 11]
[1]
  IC50: 1.58 µM

## CN(CCN)Cc1c[nH]nc1/C=C/c1cccc(F)c1 [Compound 20]
[1]
  IC50: 2.34 µM

## CN(CCN)Cc1c[nH]nc1/C=C/c1cccc(C(F)(F)F)c1 [Compound 16]
[1]
  IC50: 5.79 µM

## CN(CCN)Cc1c[nH]nc1/C=C/Cc1ccccc1 [Compound 24]
  IC50: > 10 µM
[1]
  IC50: > 10 µM

## CNCCN(C)Cc1c[nH]nc1C#Cc1cccc(OC)c1 [Compound 1]
[1]
  IC50: 6.83 µM

## CC(C)c1n[nH]cc1CN(C)CCN [Compound 21]
  IC50: > 10 µM
[1]
  IC50: > 10 µM

## CNCCN(C)Cc1c[nH]nc1C#Cc1ccc(C(C)(C)C)cc1 [Compound 2]
[1]
  IC50: 3 µM

From US11512053B2, “Arginine methyltransferase inhibitors and uses thereof” (priority 2013, dated 2022)
